From ChEMBL document CHEMBL1201862, “PubChem BioAssay data set” (2004)
Calls of active or inactive are those of the source.

Columns and labels:
[1] = biological target: SWI/SNF-related matrix-associated actin-dependent regulator of chromatin subfamily A member 2 (Homo sapiens, UniProt P51531); assay: Luminescence-based cell-based high throughput dose response assay to identify activators of the function of SWI/SNF related, matrix associated, actin dependent regulator of chromatin, subfamily a, member 2 (SMARCA2, BRM).; format: functional
Sequence of SWI/SNF-related matrix-associated actin-dependent regulator of chromatin subfamily A member 2 (P51531 whole entry): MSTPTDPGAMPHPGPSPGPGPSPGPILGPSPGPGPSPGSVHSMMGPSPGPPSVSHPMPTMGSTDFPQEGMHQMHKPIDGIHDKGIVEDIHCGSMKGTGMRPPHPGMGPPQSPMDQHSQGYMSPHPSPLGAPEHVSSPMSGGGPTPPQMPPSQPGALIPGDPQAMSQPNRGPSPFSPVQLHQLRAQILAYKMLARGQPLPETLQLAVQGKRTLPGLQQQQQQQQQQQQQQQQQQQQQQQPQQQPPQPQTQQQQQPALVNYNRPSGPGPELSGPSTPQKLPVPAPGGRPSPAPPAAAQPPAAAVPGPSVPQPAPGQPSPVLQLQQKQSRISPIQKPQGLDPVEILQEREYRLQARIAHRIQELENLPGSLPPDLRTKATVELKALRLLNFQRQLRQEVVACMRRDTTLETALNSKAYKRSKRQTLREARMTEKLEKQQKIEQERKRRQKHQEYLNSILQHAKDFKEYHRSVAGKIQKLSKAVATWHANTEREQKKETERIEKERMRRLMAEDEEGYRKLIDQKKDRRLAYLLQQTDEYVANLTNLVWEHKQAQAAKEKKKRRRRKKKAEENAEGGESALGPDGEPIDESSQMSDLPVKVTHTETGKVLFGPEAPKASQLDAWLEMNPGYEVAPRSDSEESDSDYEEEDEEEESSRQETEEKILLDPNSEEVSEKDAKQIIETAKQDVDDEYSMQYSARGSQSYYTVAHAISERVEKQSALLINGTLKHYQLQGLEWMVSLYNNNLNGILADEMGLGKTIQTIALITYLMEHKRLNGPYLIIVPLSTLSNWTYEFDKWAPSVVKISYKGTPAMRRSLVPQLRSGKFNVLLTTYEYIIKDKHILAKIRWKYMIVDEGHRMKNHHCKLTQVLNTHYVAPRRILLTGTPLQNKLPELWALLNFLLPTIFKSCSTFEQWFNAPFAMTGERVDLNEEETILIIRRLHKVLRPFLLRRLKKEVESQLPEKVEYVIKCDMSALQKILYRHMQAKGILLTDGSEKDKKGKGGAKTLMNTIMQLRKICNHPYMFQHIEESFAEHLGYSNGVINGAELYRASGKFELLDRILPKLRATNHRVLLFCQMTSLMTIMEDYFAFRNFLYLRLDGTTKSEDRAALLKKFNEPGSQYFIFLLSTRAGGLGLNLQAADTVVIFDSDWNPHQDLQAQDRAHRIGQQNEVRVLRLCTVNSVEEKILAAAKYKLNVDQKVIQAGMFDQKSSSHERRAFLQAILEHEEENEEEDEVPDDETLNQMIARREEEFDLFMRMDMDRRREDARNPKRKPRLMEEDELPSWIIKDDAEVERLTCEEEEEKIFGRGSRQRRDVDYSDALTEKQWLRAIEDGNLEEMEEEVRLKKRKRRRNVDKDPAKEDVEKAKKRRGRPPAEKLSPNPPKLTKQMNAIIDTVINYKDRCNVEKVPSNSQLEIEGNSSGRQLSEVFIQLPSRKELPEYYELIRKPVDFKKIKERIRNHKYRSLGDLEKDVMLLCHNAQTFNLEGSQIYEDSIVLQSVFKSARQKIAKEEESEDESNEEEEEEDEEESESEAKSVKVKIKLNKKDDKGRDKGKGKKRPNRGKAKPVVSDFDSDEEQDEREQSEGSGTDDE

[2] = Counterscreen for activators of the function of SWI/SNF related, matrix associated, actin dependent regulator of chromatin, subfamily a, member 2 (SMARCA2, BRM): Luminescence-based cell-based high throughput dose response assay to identify non-selective compounds using the VP16 reporter assay.; format: functional
[3] = biological target: T1, Corticotropin-releasing factor receptor 2/Corticotropin-releasing factor-binding protein (Homo sapiens, UniProt P24387+Q13324); assay: Dose Response confirmation of uHTS hits for small molecule antagonists of the CRF-binding protein and CRF-R2 receptor complex.; format: functional; details: read-out: IC50_Mean
T1 sequence (Q13324 whole entry): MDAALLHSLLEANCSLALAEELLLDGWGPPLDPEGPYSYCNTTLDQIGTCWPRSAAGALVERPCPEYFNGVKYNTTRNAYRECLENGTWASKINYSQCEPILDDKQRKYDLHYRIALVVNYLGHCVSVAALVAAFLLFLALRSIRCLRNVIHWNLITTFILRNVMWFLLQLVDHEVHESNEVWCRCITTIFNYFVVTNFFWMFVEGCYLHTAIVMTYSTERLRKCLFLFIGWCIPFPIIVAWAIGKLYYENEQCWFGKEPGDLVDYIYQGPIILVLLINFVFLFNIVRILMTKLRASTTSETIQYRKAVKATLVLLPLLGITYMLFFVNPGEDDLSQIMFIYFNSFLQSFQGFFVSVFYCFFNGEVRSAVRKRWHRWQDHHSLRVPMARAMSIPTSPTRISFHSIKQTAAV
T1 sequence (P24387 whole entry): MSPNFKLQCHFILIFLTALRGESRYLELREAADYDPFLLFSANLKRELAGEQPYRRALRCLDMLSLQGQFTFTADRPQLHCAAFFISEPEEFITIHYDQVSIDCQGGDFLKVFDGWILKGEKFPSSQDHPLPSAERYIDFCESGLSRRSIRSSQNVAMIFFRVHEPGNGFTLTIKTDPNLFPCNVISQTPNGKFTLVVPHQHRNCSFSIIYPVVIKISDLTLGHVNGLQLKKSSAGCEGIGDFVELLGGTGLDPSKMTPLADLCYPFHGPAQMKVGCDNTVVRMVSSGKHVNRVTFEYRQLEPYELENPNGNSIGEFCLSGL

[4] = biological target: T2, Long-chain-fatty-acid--AMP ligase FadD28 (Mycobacterium tuberculosis, UniProt P9WQ59); assay: Fluorescence polarization aasay to screen for inhibitors that compete for the binding of FadD28 to a bisubstrate Measured in Biochemical System Using Plate Reader - 2147-01_Inhibitor_Dose_CherryPick_Activity.; format: functional, Mycobacterium tuberculosis H37Rv
T2 sequence (P9WQ59 whole entry): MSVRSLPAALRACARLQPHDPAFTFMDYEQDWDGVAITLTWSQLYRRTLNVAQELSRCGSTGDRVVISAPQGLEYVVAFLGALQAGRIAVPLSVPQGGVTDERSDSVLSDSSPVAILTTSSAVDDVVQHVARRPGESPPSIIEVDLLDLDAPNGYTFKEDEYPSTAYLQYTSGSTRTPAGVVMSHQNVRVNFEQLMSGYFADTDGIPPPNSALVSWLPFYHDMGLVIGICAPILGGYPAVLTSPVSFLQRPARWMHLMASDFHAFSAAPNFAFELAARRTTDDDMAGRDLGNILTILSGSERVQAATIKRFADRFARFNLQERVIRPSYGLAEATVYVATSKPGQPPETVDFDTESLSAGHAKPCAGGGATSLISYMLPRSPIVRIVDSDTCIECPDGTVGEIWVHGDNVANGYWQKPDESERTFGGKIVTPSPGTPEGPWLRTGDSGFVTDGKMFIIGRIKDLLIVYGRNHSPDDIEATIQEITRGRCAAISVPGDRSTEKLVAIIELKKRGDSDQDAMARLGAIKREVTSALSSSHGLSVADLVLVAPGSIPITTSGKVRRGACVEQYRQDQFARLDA

Genome polyprotein = Genome polyprotein (dengue virus type 2, UniProt P29990); assay: flavivirus cap methylation enzyme inhibition – biochemical, confirmation dose response, primary screen (AID 588689); format: functional
Sequence of Genome polyprotein (P29990 2492-3391 limits assumed): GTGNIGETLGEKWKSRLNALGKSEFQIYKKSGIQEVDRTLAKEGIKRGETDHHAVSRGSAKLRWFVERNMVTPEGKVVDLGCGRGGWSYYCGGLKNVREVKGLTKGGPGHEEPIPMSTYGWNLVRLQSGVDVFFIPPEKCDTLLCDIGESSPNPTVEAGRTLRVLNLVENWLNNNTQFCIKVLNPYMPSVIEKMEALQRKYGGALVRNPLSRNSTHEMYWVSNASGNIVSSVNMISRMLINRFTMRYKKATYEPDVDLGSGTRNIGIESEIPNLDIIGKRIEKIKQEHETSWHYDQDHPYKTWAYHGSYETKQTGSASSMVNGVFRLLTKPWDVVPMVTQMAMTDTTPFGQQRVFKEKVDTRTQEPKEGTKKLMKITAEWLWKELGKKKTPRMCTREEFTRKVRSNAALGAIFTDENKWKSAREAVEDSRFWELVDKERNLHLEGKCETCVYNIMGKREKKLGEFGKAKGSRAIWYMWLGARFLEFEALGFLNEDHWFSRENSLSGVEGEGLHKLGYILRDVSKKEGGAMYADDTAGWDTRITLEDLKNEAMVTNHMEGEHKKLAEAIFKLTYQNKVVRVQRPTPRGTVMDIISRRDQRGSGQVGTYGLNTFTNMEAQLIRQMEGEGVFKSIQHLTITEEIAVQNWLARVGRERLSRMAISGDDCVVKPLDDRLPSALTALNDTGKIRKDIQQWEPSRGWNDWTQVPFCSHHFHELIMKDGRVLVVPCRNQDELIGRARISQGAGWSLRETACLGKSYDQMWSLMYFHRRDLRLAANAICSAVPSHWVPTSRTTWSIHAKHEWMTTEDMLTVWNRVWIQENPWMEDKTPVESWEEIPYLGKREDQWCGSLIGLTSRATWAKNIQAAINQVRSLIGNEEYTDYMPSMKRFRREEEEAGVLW

[5] = biological target: T1, Corticotropin-releasing factor receptor 2/Corticotropin-releasing factor-binding protein; assay: activators of CRF receptor 2 with binding protein – uHTS hits, confirmation (AID 602473); format: functional; details: read-out: EC50_Mean
[6] = blockers of CRF-binding protein–CRF-R2 complex – cell-based, uHTS hits, 384-well, dose response (AID 651639); format: functional, Homo sapiens; details: read-out: IC50_Mean
Aminopeptidase N = biological target: T3, Aminopeptidase N (Plasmodium falciparum FcB1/Columbia, UniProt O96935); assay: malaria alanyl aminopeptidase activity blockers – biochemical, fluorogenic H-Leu-NHMec substrate, 1536-well (AID 1445); parameters: species or system Plasmodium falciparum 3D7, 3D7
T3 sequence (O96935 whole entry): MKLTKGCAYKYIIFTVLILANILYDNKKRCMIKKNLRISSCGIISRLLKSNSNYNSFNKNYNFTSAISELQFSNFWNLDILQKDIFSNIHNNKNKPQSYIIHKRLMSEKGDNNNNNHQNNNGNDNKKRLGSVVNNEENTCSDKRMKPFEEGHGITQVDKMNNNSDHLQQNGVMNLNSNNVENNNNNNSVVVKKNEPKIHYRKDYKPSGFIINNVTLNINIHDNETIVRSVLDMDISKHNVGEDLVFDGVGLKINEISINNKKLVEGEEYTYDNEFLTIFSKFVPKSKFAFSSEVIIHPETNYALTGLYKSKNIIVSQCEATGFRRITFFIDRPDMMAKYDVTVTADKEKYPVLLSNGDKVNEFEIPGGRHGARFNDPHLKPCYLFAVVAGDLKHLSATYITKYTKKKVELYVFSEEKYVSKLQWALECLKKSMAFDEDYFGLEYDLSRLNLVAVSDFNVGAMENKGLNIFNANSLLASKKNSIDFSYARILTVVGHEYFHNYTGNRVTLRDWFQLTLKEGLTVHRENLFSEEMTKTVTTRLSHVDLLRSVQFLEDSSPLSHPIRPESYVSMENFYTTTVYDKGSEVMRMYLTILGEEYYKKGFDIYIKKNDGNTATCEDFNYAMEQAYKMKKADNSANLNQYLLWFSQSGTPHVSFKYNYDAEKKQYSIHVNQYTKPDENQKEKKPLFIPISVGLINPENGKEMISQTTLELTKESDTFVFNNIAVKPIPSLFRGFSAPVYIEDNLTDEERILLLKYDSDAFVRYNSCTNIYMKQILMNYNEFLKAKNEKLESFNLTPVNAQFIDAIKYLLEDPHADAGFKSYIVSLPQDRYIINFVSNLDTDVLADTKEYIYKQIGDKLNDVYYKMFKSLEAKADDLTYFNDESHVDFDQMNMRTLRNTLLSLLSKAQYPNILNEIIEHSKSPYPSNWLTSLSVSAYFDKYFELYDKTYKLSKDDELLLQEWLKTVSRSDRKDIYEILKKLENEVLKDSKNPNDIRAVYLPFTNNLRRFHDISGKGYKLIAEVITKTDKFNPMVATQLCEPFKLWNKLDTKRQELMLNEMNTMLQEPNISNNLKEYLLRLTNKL

[7] = Counterscreen for antagonists of the human trace amine associated receptor 1 (hTAAR1): Fluorescence-based cell-based high throughput dose response assay to identify nonselective Ga16 antagonists.; format: functional
[8] = Counterscreen for […] of the human trace amine associated receptor 1 (TAAR1): Fluorescence-based cell-based high throughput dose response assay to identify nonselective Ga16 agonists.; format: functional
[9] = biological target: T4, Trace amine-associated receptor 1 (Homo sapiens, UniProt Q96RJ0); assay: Fluorescence-based cell-based high throughput dose response assay to identify antagonists of the human trace amine associated receptor 1 (TAAR1).; format: functional
T4 sequence (Q96RJ0 whole entry): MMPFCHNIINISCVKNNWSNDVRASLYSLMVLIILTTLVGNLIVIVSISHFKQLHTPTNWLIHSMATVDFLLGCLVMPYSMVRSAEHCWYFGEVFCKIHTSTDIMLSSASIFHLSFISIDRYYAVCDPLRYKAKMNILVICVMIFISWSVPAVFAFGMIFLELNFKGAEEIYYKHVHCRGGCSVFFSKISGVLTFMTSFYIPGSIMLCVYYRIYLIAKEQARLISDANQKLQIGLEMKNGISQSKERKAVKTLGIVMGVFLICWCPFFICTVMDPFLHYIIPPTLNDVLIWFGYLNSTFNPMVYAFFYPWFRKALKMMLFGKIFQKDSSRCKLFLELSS

[10] = biological target: T4, Trace amine-associated receptor 1; assay: Counterscreen for antagonists of the human trace amine associated receptor 1 (hTAAR1): Fluorescence-based cell-based high throughput dose response assay to identify TAAR1 Agonists.; format: functional
[11] = biological target: T4, Trace amine-associated receptor 1; assay: Fluorescence-based cell-based high throughput dose response assay to identify agonists of the human trace amine associated receptor 1 (TAAR1).; format: functional
[12] = biological target: T4, Trace amine-associated receptor 1; assay: Counterscreen for agonists of the human trace amine associated receptor 1 (hTAAR1): Fluorescence-based cell-based high throughput dose response assay to identify hTAAR1 agonist that also desensitize TAAR1 receptor response.; format: functional
cells [13] = format: functional, cell-based
cells [14] = format: functional, cell-based; remark: listed apart in the source
[15] = biological target: 5-hydroxytryptamine receptor 2A (Mus musculus, UniProt P35363); format: functional, cell-based;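 note: CHO-K1 cells with tagged receptor and beta-arrestin; agonist potency measured as compound-induced activation of the receptor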
Sequence of 5-hydroxytryptamine receptor 2A (P35363 whole entry): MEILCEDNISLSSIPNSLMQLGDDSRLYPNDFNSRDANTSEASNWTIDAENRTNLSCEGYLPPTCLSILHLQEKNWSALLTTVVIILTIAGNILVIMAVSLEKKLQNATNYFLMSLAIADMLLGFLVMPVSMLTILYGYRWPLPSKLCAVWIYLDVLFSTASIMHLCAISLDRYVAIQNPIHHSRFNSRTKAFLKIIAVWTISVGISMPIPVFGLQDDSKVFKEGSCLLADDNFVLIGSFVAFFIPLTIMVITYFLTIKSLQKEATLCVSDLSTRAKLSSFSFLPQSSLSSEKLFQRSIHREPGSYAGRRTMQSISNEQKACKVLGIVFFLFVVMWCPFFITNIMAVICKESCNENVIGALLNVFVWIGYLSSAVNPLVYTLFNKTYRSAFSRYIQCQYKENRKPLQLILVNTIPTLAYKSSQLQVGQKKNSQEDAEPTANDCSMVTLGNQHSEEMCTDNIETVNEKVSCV

Mu-type opioid receptor = Mu-type opioid receptor (Homo sapiens, UniProt P35372); format: functional, cell-based;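 note: U2OS cells with beta-arrestin recruitment to OPRM1 by beta-gal complementation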
Sequence of Mu-type opioid receptor (P35372 whole entry): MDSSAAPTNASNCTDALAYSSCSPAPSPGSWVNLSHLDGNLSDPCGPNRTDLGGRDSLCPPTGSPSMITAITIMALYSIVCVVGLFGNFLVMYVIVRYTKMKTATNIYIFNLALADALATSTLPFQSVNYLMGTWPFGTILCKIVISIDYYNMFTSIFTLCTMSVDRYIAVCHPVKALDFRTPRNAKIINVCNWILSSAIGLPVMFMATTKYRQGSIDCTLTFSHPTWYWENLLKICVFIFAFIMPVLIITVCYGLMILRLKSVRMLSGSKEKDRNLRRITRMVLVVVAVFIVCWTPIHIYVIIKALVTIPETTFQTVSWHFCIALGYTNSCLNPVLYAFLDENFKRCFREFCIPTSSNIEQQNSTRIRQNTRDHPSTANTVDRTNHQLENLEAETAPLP

For `O=C(COC(=O)c1nc(Cl)c(Cl)c(Cl)c1Cl)NCc1ccccc1`, the EC50 [1] was > 91.1 µM (inactive) and the EC50 [2] was > 91.1 µM (inactive).

For `C=CCOc1ccc(/C=C2\SC(=S)N(C(C(=O)O)c3ccccc3)C2=O)cc1` (stereo unspecified), the IC50 [3] was 4.06 µM (active), the AC50 [4] was 4.48 µM (active) and the IC50 (Genome polyprotein) was 40.2 µM (active). For the same compound, the EC50 [5] was 33.2 µM (active), the IC50 [6] was 14.7 µM (active) and the IC50 (Aminopeptidase N) was 33.8 µM (active).

In the case of `O=C1NC(=S)S/C1=C\c1cccc([N+](=O)[O-])c1`, the IC50 [3] is reported as 16.7 µM (active), the EC50 [5] is reported as 10.8 µM (active) and the IC50 [6] is reported as > 20 µM (inactive).

In the case of `COc1ccc(-c2c(C#Cc3ccsc3)c3cc(-c4ccc(C(N)=O)cc4)ccc3n2C)cc1`, the IC50 [7] is reported as > 29.9 µM (inactive), the EC50 [8] is reported as > 29.9 µM (inactive) and the IC50 [9] is reported as 0.233 µM (active). For the same compound, the EC50 [10] was > 29.9 µM (inactive).

With `CCOC(=O)[C@]12CCC=C1N(Cc1ccc3c(c1)OCO3)C(=O)[C@H](CC(=O)NCCc1ccccc1OC)C2` the EC50 [11] was 7.51 µM (active), the IC50 [12] was 6.46 µM (active) and the EC50 (cells [13]) was > 29.9 µM (inactive). The IC50 (cells [14]) was > 29.9 µM (inactive).

For `COc1cccc(-c2nc(CN3CCN(C(=O)c4ccco4)CC3)c(C)o2)c1OC`, the EC50 [15] was 20 µM (inactive) and the EC50 (Mu-type opioid receptor) was 92.5 µM (inactive).
